What was measured:
Assay in all cases: relative viability (nuclei count vs DMSO), 5 days (fraction); higher = more cells survive
Pemetrexed + Trametinib = compound: Nc1nc2[nH]cc(CCc3ccc(C(=O)N[C@@H](CCC(=O)O)C(=O)O)cc3)c2c(=O)[nH]1 [Pemetrexed] + CC(=O)Nc1cccc(-n2c(=O)n(C3CC3)c(=O)c3c(Nc4ccc(I)cc4F)n(C)c(=O)c(C)c32)c1 [Trametinib] (partner 0.02 µM)
Procedure, shortened: (§1)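 Lung cancer cell lines were pin-tool dosed in 1536-well plates on the day after seeding, with either a lone drug or a fixed anchor-drug dose plus five library-drug doses (not always all listed) in √10 steps. Nuclei were counted on 4× images after 5 days. Relative viability is the ratio of treated-well to vehicle-well nuclei counts, with each value a median of duplicate plates.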

Idelalisib + Pictilisib = compound: CC[C@H](Nc1ncnc2[nH]cnc12)c1nc2cccc(F)c2c(=O)n1-c1ccccc1 [Idelalisib] + CS(=O)(=O)N1CCN(Cc2cc3nc(-c4cccc5[nH]ncc45)nc(N4CCOCC4)c3s2)CC1 [Pictilisib] (partner 1 µM)
Procedure, shortened: as §1

Idelalisib + Tozasertib = compound: CC[C@H](Nc1ncnc2[nH]cnc12)c1nc2cccc(F)c2c(=O)n1-c1ccccc1 [Idelalisib] + Cc1cc(Nc2cc(N3CCN(C)CC3)nc(Sc3ccc(NC(=O)C4CC4)cc3)n2)n[nH]1 [Tozasertib] (partner 0.1 µM)
Procedure, shortened: as §1

Idelalisib + Alpelisib = compound: CC[C@H](Nc1ncnc2[nH]cnc12)c1nc2cccc(F)c2c(=O)n1-c1ccccc1 [Idelalisib] + Cc1nc(NC(=O)N2CCC[C@H]2C(N)=O)sc1-c1ccnc(C(C)(C)C(F)(F)F)c1 [Alpelisib] (partner 2 µM)
Procedure, shortened: as §1

Cell Line | relative viability (Pemetrexed + Trametinib; first compound 0.002 µM) | relative viability (Pemetrexed + Trametinib; first compound 0.006325 µM) | relative viability (Pemetrexed + Trametinib; first compound 0.02 µM) | relative viability (Pemetrexed + Trametinib; first compound 0.06325 µM) | relative viability (Pemetrexed + Trametinib; first compound 0.2 µM) | relative viability (Idelalisib + Pictilisib; first compound 0.04 µM) | relative viability (Idelalisib + Pictilisib; first compound 0.1265 µM) | relative viability (Idelalisib + Pictilisib; first compound 0.4 µM) | relative viability (Idelalisib + Pictilisib; first compound 1.265 µM) | relative viability (Idelalisib + Pictilisib; first compound 4 µM) | relative viability (Idelalisib + Tozasertib; first compound 0.04 µM) | relative viability (Idelalisib + Tozasertib; first compound 0.1265 µM) | relative viability (Idelalisib + Tozasertib; first compound 0.4 µM) | relative viability (Idelalisib + Tozasertib; first compound 1.265 µM) | relative viability (Idelalisib + Tozasertib; first compound 4 µM) | relative viability (Idelalisib + Alpelisib; first compound 0.04 µM) | relative viability (Idelalisib + Alpelisib; first compound 0.1265 µM) | relative viability (Idelalisib + Alpelisib; first compound 0.4 µM) | relative viability (Idelalisib + Alpelisib; first compound 1.265 µM) | relative viability (Idelalisib + Alpelisib; first compound 4 µM)
ChaGo-K-1 | 0.902 | 0.848 | 0.871 | 0.662 | 0.31 | 0.788 | 0.608 | 0.797 | 0.796 | 0.791 | 0.244 | 0.227 | 0.197 | 0.212 | 0.187 | – | – | – | – | –
EBC-1 | – | – | – | – | – | 0.399 | 0.42 | 0.343 | 0.368 | 0.209 | – | – | – | – | – | 0.961 | 0.941 | 0.684 | 0.658 | 0.349
EKVX | 0.337 | 0.327 | 0.37 | 0.297 | 0.218 | 0.498 | 0.456 | 0.384 | 0.356 | 0.447 | 0.411 | 0.419 | 0.336 | 0.342 | 0.317 | 0.835 | 0.896 | 0.728 | 0.625 | 0.53
EMC-BAC-2 | 0.826 | 0.755 | 0.986 | 0.807 | 0.618 | 0.563 | 0.569 | 0.475 | 0.59 | 0.492 | 0.313 | 0.277 | 0.296 | 0.276 | 0.281 | 0.689 | 0.736 | 0.674 | 0.707 | 0.684
EPLC-272H | 0.33 | 0.27 | 0.385 | 0.305 | 0.227 | 0.299 | 0.313 | 0.236 | 0.402 | 0.316 | 0.212 | 0.227 | 0.242 | 0.212 | 0.222 | 0.617 | 0.9 | 0.767 | 0.74 | 0.669
H3255 | 0.517 | 0.581 | 0.673 | 0.55 | 0.515 | 0.416 | 0.442 | 0.44 | 0.436 | 0.404 | 0.646 | 0.852 | 0.583 | 0.568 | 0.544 | 0.652 | 0.683 | 0.591 | 0.518 | 0.607
HARA | 0.592 | 0.395 | 0.797 | 0.41 | 0.17 | 0.376 | 0.409 | 0.287 | 0.403 | 0.266 | 0.0983 | 0.113 | 0.121 | 0.0975 | 0.101 | 1.03 | 0.843 | 0.855 | 0.754 | 0.751
HCC-15 | 0.371 | 0.344 | 0.392 | 0.336 | 0.218 | 0.762 | 0.748 | 0.662 | 0.866 | 0.728 | 0.556 | 0.419 | 0.356 | 0.384 | 0.31 | 1.07 | 0.884 | 0.794 | 0.912 | 0.83
HCC-44 | 0.946 | 1.05 | 1.14 | 1.09 | 1.04 | 0.679 | 0.646 | 0.526 | 0.59 | 0.591 | 0.879 | 1.02 | 0.762 | 0.866 | 0.756 | 0.831 | 0.812 | 0.602 | 0.577 | 0.638

Source: the supplement of paper PMC10307832
